Calls of active or inactive are those of the source. The calls are words filed in the database; no cut-off is given here.
Tests used:
LSD1/CoREST complex [1] = target: T1, LSD1/CoREST complex (Homo sapiens, UniProt O60341); experiment: Inhibition of recombinant human KDM1A/CoREST complex expressed in Escherichia coli using [Lys(Me1)4]-Histone H3 (1 to 21 residues)-GGK(biotin) as substrate incubated for 20 mins measured after 1 hr by TR-FRET assay
[2] = target: T2, Amine oxidase [flavin-containing] B (Homo sapiens, UniProt P27338); experiment: Inhibition of recombinant human MAOB incubated for 15 mins measured after 30 mins by luminescence-Glo assay
T2 sequence (P27338 whole entry): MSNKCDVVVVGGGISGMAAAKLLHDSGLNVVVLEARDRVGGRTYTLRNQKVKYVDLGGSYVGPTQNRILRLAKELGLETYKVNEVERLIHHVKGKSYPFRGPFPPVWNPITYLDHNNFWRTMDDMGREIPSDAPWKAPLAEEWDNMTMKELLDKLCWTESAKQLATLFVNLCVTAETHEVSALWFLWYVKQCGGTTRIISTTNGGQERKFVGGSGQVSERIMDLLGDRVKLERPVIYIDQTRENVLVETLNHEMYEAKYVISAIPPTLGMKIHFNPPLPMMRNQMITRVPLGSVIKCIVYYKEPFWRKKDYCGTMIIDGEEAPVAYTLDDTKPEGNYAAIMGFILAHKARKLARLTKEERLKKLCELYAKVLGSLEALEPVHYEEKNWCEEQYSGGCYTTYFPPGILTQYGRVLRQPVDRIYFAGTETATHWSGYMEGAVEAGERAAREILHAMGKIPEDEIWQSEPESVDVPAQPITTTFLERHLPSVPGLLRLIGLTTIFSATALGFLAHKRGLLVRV

THP-1 [3] = experiment: Induction of apoptosis in human THP1 cells at 1 uM after 72 hrs by Annexin V-propidium iodide double staining based flow cytometry; assay type: functional, cell-based
MV4-11 = experiment: Antiproliferative activity against human MV4-11 cells
THP-1 [4] = experiment: Antiproliferative activity against human THP1 cells
THP-1 [5] = experiment: Anticlonogenic activity against human THP1 cells assessed as inhibition of methylcellulose colony formation at 1 uM after 13 days relative to control; assay type: functional; settings: THP-1, 312 h
[6] = target: Lysine-specific histone demethylase 1A (Homo sapiens) (UniProt O60341); experiment: Inhibition of KDM1A in human THP1 cells assessed as increase in CD86 expression level at 0.5 uM after 48 hrs by flow cytometric analysis; assay type: cell-based
THP-1 [7] = experiment: Cell cycle arrest in human THP1 cells at 1 uM after 72 hrs by propidium iodide staining based flow cytometry; assay type: functional
[8] = target: Lysine-specific histone demethylase 1A (Homo sapiens) (UniProt O60341); experiment: Inhibition of KDM1A in human THP1 cells assessed as increase in CD11b expression level at 0.5 uM after 48 hrs by flow cytometric analysis; assay type: cell-based
NB-4 = experiment: Antiproliferative activity against human NB4 cells
[9] = target: T3, Amine oxidase [flavin-containing] A (Homo sapiens, UniProt P21397); experiment: Inhibition of recombinant human MAOA incubated for 15 mins measured after 30 mins by luminescence-Glo assay
T3 sequence (P21397 whole entry): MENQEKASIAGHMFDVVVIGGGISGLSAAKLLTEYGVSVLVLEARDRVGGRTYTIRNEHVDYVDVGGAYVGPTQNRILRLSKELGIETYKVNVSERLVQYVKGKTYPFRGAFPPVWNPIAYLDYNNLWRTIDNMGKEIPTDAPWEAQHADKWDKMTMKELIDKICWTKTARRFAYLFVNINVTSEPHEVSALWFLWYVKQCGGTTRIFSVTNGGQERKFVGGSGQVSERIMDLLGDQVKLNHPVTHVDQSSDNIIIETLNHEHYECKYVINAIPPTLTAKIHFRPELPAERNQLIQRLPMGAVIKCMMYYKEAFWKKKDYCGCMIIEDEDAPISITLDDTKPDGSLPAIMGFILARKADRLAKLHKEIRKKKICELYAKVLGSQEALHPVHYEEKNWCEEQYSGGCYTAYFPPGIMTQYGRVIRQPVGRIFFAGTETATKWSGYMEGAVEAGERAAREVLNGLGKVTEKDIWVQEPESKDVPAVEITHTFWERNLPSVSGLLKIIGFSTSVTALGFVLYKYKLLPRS

[10] = system: CN1CCC(Oc2ccc(OCc3ccccc3NC(=O)c3cc4sccc4n3C)cc2)CC1; experiment: Inhibition of recombinant human KDM1A/CoREST complex expressed in Escherichia coli assessed as Vmax for substrate using H3K4me peptide as substrate preincubated for 15 mins followed by substrate addition measured for 12 mins by Lineweaver-Burk plot analysis
[11] = system: CN1CCC(Oc2ccc(OCc3ccccc3NC(=O)c3cc4sccc4n3C)cc2)CC1; experiment: Inhibition of recombinant human KDM1A/CoREST complex expressed in Escherichia coli assessed as Km for substrate using H3K4me peptide as substrate preincubated for 15 mins followed by substrate addition measured for 12 mins by Lineweaver-Burk plot analysis
LSD1/CoREST complex [12] = target: T1, LSD1/CoREST complex; experiment: Competitive inhibition of recombinant human KDM1A/CoREST complex expressed in Escherichia coli using H3K4me peptide as substrate preincubated for 15 mins followed by substrate addition measured for 12 mins by Lineweaver-Burk plot analysis
THP-1 [13] = experiment: Induction of apoptosis in human THP1 cells at 0.5 uM after 72 hrs by Annexin V-propidium iodide double staining based flow cytometry; assay type: functional, cell-based
THP-1 [14] = experiment: Anticlonogenic activity against human THP1 cells assessed as inhibition of methylcellulose colony formation at 0.5 uM after 13 days relative to control; assay type: functional; settings: THP-1, 312 h
THP-1 [15] = experiment: Cell cycle arrest in human THP1 cells at 0.5 uM after 72 hrs by propidium iodide staining based flow cytometry; assay type: functional
[16] = target: T4, Lysine-specific histone demethylase 2 (Homo sapiens, UniProt Q8NB78); experiment: Inhibition of KDM1B (unknown origin)
T4 sequence (Q8NB78 whole entry): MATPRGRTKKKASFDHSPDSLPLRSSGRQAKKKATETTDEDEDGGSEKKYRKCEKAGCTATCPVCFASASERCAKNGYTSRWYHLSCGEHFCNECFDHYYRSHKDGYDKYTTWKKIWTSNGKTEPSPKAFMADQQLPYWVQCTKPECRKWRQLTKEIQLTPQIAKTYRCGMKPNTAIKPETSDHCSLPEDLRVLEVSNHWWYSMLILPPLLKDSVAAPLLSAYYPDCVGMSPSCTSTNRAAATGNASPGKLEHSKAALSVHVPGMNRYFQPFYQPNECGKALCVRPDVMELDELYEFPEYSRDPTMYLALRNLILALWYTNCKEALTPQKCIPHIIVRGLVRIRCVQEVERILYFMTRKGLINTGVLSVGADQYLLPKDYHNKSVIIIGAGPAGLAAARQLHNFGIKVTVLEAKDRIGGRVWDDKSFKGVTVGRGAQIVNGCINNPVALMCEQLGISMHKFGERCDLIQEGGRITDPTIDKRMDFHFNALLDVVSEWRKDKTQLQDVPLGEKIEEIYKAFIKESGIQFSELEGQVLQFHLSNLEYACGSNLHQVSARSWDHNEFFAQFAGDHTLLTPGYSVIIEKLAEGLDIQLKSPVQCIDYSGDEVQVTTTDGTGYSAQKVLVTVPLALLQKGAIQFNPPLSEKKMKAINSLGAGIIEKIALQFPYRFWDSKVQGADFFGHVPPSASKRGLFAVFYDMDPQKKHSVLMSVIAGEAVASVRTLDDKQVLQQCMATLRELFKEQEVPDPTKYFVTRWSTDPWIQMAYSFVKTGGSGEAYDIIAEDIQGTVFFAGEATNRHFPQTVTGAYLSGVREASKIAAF

Molecule	IC50 (LSD1/CoREST complex [1])	further results
Cn1c(C(=O)Nc2ccccc2OCc2ccncc2)cc2sccc21	> 100000 nM	
Cn1c(C(=O)Nc2ccccc2COc2ccc(N3CCNCC3)cc2)cc2sccc21	1500 nM	
Cn1c(C(=O)Nc2ccccc2COc2ccc(CNC(=N)N)cc2)cc2sccc21	3200 nM	
CN1CCC(Oc2ccccc2OCc2ccccc2NC(=O)c2cc3sccc3n2C)CC1	68200 nM	
Cn1c(C(=O)Nc2ccccc2OCC2CCN(CC3CCNCC3)CC2)cc2sccc21	1700 nM	
COc1ccccc1NC(=O)c1cc2sccc2n1C	> 100000 nM	
Cn1c(C(=O)Nc2ccccc2COc2ccc(OCC3CNC3)cc2)cc2sccc21	618 nM	
CCOCc1cccc(NC(=O)c2cc3sccc3n2C)c1COc1ccc(OC[C@@H]2CCNC2)cc1	7.8 nM	IC50 [2]: > 100000 nM; Activity (THP-1 [3]): inactive; IC50 (MV4-11): 2500 nM; IC50 (THP-1 [4]): 2400 nM; inhibition at 1 µM (THP-1 [5]): 70.5%; inhibition [6]: Active; Activity (THP-1 [7]): inactive; inhibition [8]: Active; IC50 (NB-4): 1200 nM; IC50 [9]: 41300 nM
Cn1c(C(=O)Nc2ccccc2COc2ccc(O[C@H]3CC[C@@H](N)CC3)cc2)cc2sccc21	121 nM	
Cn1c(C(=O)Nc2ccccc2COc2ccncc2)cc2sccc21	> 100000 nM	
CN1CCC(Oc2cccc(OCc3ccccc3NC(=O)c3cc4sccc4n3C)c2)CC1	1000 nM	
Cn1c(C(=O)Nc2ccccc2COc2ccc([C@H]3CC[C@H](N)CC3)cc2)cc2sccc21	340 nM	
LSD1/CoREST complex (Homo sapiens) (from UniProt O60341+Q9UKL0)		Vmax [10]: 226 µmol/min; Km [11]: 1.5 µM
Cn1c(C(=O)Nc2ccc(OCc3ccncc3)cc2)cc2sccc21	> 100000 nM	
COCc1cccc(NC(=O)c2cc3sccc3n2C)c1COc1ccc(OC[C@@H]2CCNC2)cc1	8.4 nM	IC50 [2]: > 100000 nM; IC50 (MV4-11): 1200 nM; IC50 (THP-1 [4]): 1300 nM; inhibition [6]: Active; inhibition [8]: Active; IC50 (NB-4): 400 nM; IC50 [9]: 24900 nM
COCc1cccc(NC(=O)c2cc3sccc3n2C)c1COc1ccc(OC2CCCNCC2)cc1 (stereo not given)	29.2 nM	
Cn1c(C(=O)Nc2ccccc2C(=O)Nc2ccc(OC3CCNCC3)cc2)cc2sccc21	2200 nM	
CCn1c(C(=O)Nc2cccc(COC)c2COc2ccc(OC[C@@H]3CCNC3)cc2)cc2sccc21	6.7 nM	IC50 [2]: > 100000 nM; Activity (THP-1 [3]): inactive; IC50 (MV4-11): 4100 nM; IC50 (THP-1 [4]): 1200 nM; inhibition at 1 µM (THP-1 [5]): 63.5%; inhibition [6]: Active; Activity (THP-1 [7]): inactive; inhibition [8]: Active; IC50 (NB-4): 2900 nM; IC50 [9]: 47200 nM
Cn1c(C(=O)Nc2cccc(OCc3ccncc3)c2)cc2sccc21	5800 nM	
COc1ccc(NC(=O)c2cc3sccc3n2C)cc1	> 100000 nM	
CN1CCN(Cc2ccc(OCc3ccccc3NC(=O)c3cc4sccc4n3C)cc2)CC1	2900 nM	
Cn1c(C(=O)Nc2ccccc2CCc2ccc(OC3CCNCC3)cc2)cc2sccc21	177 nM	
COCc1cccc(NC(=O)c2cc3sccc3n2C)c1COc1ccc(OC[C@H]2CCNC2)cc1	85.7 nM	
Cn1c(C(=O)Nc2ccccc2COc2ccc(OC3CCN(Cc4ccccc4)CC3)cc2)cc2sccc21	> 100000 nM	

Molecule	IC50 (LSD1/CoREST complex [1])	further results
Cn1c(C(=O)Nc2ccccc2COc2ccc(OC3CCNCC3)cc2)cc2sccc21	90 to 94 nM	
Cn1c(C(=O)Nc2ccccc2COc2ccc(OCC3CCNCC3)cc2)cc2sccc21	149 nM	
Cn1c(C(=O)Nc2ccccc2COc2ccc(OCC3CCNC3)cc2)cc2sccc21 (stereo not given)	22 nM	
COCc1cccc(NC(=O)c2cc3sccc3n2C)c1COc1ccc(OC2CCNCC2)cc1	74.6 to 75 nM	
Cn1c(C(=O)Nc2ccccc2COc2ccc(NC3CCNCC3)cc2)cc2sccc21	2500 nM	
CCN1CCC(Oc2ccc(OCc3ccccc3NC(=O)c3cc4sccc4n3C)cc2)CC1	451 nM	
Cn1c(C(=O)Nc2ccccc2COc2ccc(OC3C[C@H]4CC[C@@H](C3)N4)cc2)cc2sccc21 (stereo not given in full)	124 nM	
Cn1c(C(=O)Nc2ccccc2COc2ccc(OC3CCCNC3)cc2)cc2sccc21 (stereo not given)	674 nM	
Cn1c(C(=O)Nc2ccccc2COc2ccc(OC[C@@H]3CCNC3)cc2)cc2sccc21	18 nM	
COCc1ccccc1NC(=O)c1cc2sccc2n1C	> 100000 nM	
CN1CCC(Oc2ccc(COc3ccccc3NC(=O)c3cc4sccc4n3C)cc2)CC1	336 nM	
CN1CCC(Oc2ccc(OCc3ccc(NC(=O)c4cc5sccc5n4C)cc3)cc2)CC1	2500 nM	
Cn1c(C(=O)Nc2cccc(CN3CCOCC3)c2COc2ccc(OC3CCNCC3)cc2)cc2sccc21	65 nM	
CC(C)OCc1cccc(NC(=O)c2cc3sccc3n2C)c1COc1ccc(OC2CCNCC2)cc1	66 nM	
CN1CCC(Oc2ccc(OCc3ccccc3NC(=O)c3cc4sccc4n3C)cc2)CC1	310 to 331 nM	Ki (LSD1/CoREST complex [12]): 2300 nM
N[C@H]1CC[C@H](N[C@@H]2C[C@H]2c2ccccc2)CC1		Activity (THP-1 [13]): inactive; inhibition at 0.5 µM (THP-1 [14]): 70%; Activity (THP-1 [15]): inactive; IC50 [9]: 41300 nM; IC50 [16]: 12900 nM
Cn1c(C(=O)Nc2ccc(COc3ccncc3)cc2)cc2sccc21	46400 nM	
CCOCc1cccc(NC(=O)c2cc3sccc3n2C)c1COc1ccc(OC2CCNCC2)cc1	56 nM	
Cn1c(C(=O)Nc2ccccc2COc2ccc(OC3CCNC3)cc2)cc2sccc21 (stereo not given)	804 nM	
COCc1ccc(NC(=O)c2cc3sccc3n2C)cc1	> 100000 nM	
Cn1c(C(=O)Nc2ccccc2COc2ccc(OC3CCCNCC3)cc2)cc2sccc21 (stereo not given)	64 nM	
CC(=O)N1CCC(Oc2ccc(OCc3ccccc3NC(=O)c3cc4sccc4n3C)cc2)CC1	> 100000 nM	
CNCCCOc1ccc(OCc2ccccc2NC(=O)c2cc3sccc3n2C)cc1	1300 nM	

Reference: ChEMBL document CHEMBL4007416, “Thieno[3,2-b]pyrrole-5-carboxamides as New Reversible Inhibitors of Histone Lysine Demethylase KDM1A/LSD1. Part 2: Structure-Based Drug Design and Structure-Activity Relationship” (J Med Chem, 2017)
